IC50 data for 3 compounds are collected here from ChEMBL document CHEMBL5727378, “Benzenesulfonamide derivatives as inverse agonists of retinoid-related orphan receptor gamma (RORγ(T))” (2019).

pIC50: −log10 of the molar value. Bounds are passed on as bounds.

The target of this test is T1, Nuclear receptor ROR-gamma (Homo sapiens, UniProt P51449).
T1 sequence (P51449 whole entry): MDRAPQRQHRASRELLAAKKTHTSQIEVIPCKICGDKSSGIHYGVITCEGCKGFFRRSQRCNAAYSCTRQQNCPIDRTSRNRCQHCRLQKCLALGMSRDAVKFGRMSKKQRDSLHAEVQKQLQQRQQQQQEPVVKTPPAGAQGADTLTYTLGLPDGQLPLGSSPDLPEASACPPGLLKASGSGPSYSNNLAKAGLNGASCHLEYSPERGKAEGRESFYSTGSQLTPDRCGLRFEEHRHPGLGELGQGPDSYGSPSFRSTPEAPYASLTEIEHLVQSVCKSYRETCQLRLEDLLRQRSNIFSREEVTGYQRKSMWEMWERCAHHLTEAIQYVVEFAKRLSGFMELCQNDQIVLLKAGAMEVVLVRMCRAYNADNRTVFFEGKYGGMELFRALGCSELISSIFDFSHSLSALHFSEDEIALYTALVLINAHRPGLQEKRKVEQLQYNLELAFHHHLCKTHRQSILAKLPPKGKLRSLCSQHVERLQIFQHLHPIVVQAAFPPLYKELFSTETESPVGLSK
In words: GAL4-RORgamma Transactivation: The RORγ transactivation model was developed from the line HG5LN, which is a HeLa line that stably expresses a luciferase reporter gene controlled by a pentamer of the GAL4 recognition domain of yeast and of a β-globin promoter. The HG5LN line was stably transfected by the DNA-binding domain (DBD) of GAL4 fused to the ROR gamma ligand-binding domain (LBD). Molecules that inhibit the ROR gamma constitutive activity reduce the luciferase expression, thus leading to a reduction in the emitted luminescence.The cells are seeded in 384-well plates (5000 cells in 45 μL/well of culture medium containing 10% fetal calf serum) and incubated for 4 hours at 37° C., 5% CO2. 5 μL of the test molecules (compounds described in the tables described above) are then added to each well and the plates are incubated for 18 hours at a temperature of 37° C. under 5% of CO2. 20 μL of luciferase substrate (Promega) are added to each well and the luminescence emitted is read by a microplate reader.The luminescence units (“RLU”) are normalized by positive controls (“POS” containing a saturated concentration of benzenesulfonamide, N-(2,2,2-trifluoroethyl)-N-[4-[2,2,2-trifluoro-1-hydroxy-1-(trifluoromethyl)ethyl]phenyl]) and negative controls (“NEG” containing DMSO): % inhibition=((RLU−NEG)*100)/(POS−NEG). The IC50 values are calculated from a 4-parameter logistic model using the XLFit software (IDBS).
The pIC50 is the negative decadic logarithm of the IC50, by convention in mol/L. Take `CCc1ccc(N(CC(C)C)S(=O)(=O)c2ccc3c(c2)N(CC2CCOCC2)CCS3(=N)=O)cc1` (stereo not drawn): the pIC50 was under 6.00.

With `CCc1ccc(N(CC(C)C)S(=O)(=O)c2ccc(NC3CCNC(=O)C3)c(S(C)(=N)=O)c2)cc1` (stereo not drawn), the pIC50 was under 6.00.

Take `CCc1ccc(N(CC(C)C)S(=O)(=O)c2ccc(OCC3CCSCC3)c(S(C)(=N)=O)c2)cc1` (stereo not drawn): the pIC50 was over 7.00.
